Results reported in US4157439A, “Novel nitrosourea derivatives” (priority 1976, dated 1979).
Read-outs that look alike come from different tables or passages of the source.

What was measured:
[1] = Acute toxicity in the intraperitoneal administration to BDF1 mice; conditions: mouse, in vivo, ip
Description: It will be appreciated clearly from the tests results of Table 1 that the novel nitrosourea derivatives according to this invention gave a significant increase in life-span in therapeutic treatment of the leukemia in comparison with streptozotocin as a known anti-leukemic nitrosourea. The novel nitrosourea derivatives according to this invention are further characterized by their low toxicity, thus satisfying their practical application for treating leukemia and tumor diseases. For example, acute toxicity in the intraperitoneal administration to BDF1 mice of typical nitrosourea derivatives according to this invention is shown below: […]

Leukemia L 1210 = experiment: Anti-leukemic activity on Leukemia L 1210 in mice (survival, percentage increase in life-span); format: in vivo, male BDF1 mice; conditions: for Survival days (mean): untreated control 8.0 days; for Number of survivors (after 60 days): survivors/animals after 60 days
Method: The anti-leukemic activity of some typical nitrosourea derivatives of the formula (I) according to this invention was tested on Leukemia L 1210 in mice, details of which are given below. By way of comparison, Streptozotocin was tested in the same way.
Male BDF1 mice, aging about 6-weeks old and weighing 22±1 g were used in groups of 5 animals each for the tests.
Each animal was inoculated with 10^6 cells of L 1210 intraperitoneally,and the test compound in the form as shown below was administered intraperitoneally from the 24th hour after inoculation once a day for 3 consecutive days. The anti-leukemic activity was assessed by comparing the mean survival days of the treated mice to that of the untreated control, i.e. percentage increase in life-span (ILS) which was calculated as follows:
Percentage increase in life-span (ILS)=(T-C/C)×100
T: The mean survival days of the treated animals
C: The mean survival days of the untreated animals
The compounds No. 1 and No. 3 were used in the form of an aqueous solution in distilled water and the compound No. 2 in the form of an aqueous suspension containing 1% CMC.

leukemia and tumors = conditions: background statement on earlier compounds; cited from earlier work
[2] = cited from earlier work
[3] = background statement on earlier compounds; cited from earlier work
[4] = dose 1 mg/kg i.p. once a day for 3 days, 60 days observation
[5] = dose 2 mg/kg i.p. once a day for 3 days, 60 days observation
[6] = dose 4 mg/kg i.p. once a day for 3 days, 60 days observation
[7] = dose 4 mg/kg i.p. once a day for 3 days
[8] = dose 8 mg/kg i.p. once a day for 3 days, 60 days observation
[9] = dose 8 mg/kg i.p. once a day for 3 days
[10] = background statement on earlier compounds

SMILES	LD50 [1] [mg/kg]	ILS (percentage increase in life-span) (Leukemia L 1210; [6]) [%]	Survival days (mean) (Leukemia L 1210; [6]) [days]	Number of survivors (after 60 days) (Leukemia L 1210; [7])	ILS (percentage increase in life-span) (Leukemia L 1210; [8]) [%]	Survival days (mean) (Leukemia L 1210; [8]) [days]	Number of survivors (after 60 days) (Leukemia L 1210; [9])	activity against the leukemia and tumors (leukemia and tumors)	also measured
CC(=O)N[C@@H]1[C@@H](O)[C@H](O)[C@@H](CO)O[C@H]1NC(=O)N(CCCl)N=O [compound 2, 1-(2-Chloroethyl)-3-(2-acetamido-2-deoxy-β-D-glucopyranosyl)-1-nitrosourea]	20	95.0	15.6	0/5	< 495.0	< 47.6	3/5	–	ILS (percentage increase in life-span) (Leukemia L 1210; [4]): 41.3%; Survival days (mean) (Leukemia L 1210; [4]): 11.3 days; Number of survivors (after 60 days) (Leukemia L 1210; dose 1 mg/kg i.p. once a day for 3 days): 0/5; ILS (percentage increase in life-span) (Leukemia L 1210; [5]): 55.0%; Survival days (mean) (Leukemia L 1210; [5]): 12.4 days; Number of survivors (after 60 days) (Leukemia L 1210; dose 2 mg/kg i.p. once a day for 3 days): 0/5
CN(N=O)C(=O)N[C@H]1C(O)O[C@H](CO)[C@@H](O)[C@@H]1O (stereo partly drawn) [compound 3, N-(N'-methyl-N'-nitroso-carbamoyl)-D-glucosamine, reference compound]	–	–	–	–	–	–	–	insufficient activity against the leukemia and tumors	side effect ([2]; in vivo): undesirable side effect; Survival days (mean) (Leukemia L 1210; dose 50 mg/kg i.p. once a day for 3 days, 60 days observation): 12.1 days; Number of survivors (after 60 days) (Leukemia L 1210; dose 50 mg/kg i.p. once a day for 3 days): 0/5; Survival days (mean) (Leukemia L 1210; dose 100 mg/kg i.p. once a day for 3 days, 60 days observation): 10.6 days; Number of survivors (after 60 days) (Leukemia L 1210; dose 100 mg/kg i.p. once a day for 3 days): 0/5; ILS (percentage increase in life-span) (Leukemia L 1210; ip, 50 mg/kg): 51.3%; ILS (percentage increase in life-span) (Leukemia L 1210; ip, 100 mg/kg): 32.5%
CC(=O)N[C@@H]1[C@@H](OC(C)=O)[C@H](OC(C)=O)[C@@H](COC(C)=O)O[C@H]1NC(=O)N(CCCl)N=O [compound 1, 1-(2-Chloroethyl)-3-(2-acetamido-3,4,6-tri-O-acetyl-2-deoxy-β-D-glucopyranosyl)-1-nitrosourea]	25	78.8	14.3	0/5	105.0	16.4	0/5	–	–
O=NN(CCCl)C(=O)N[C@@H]1O[C@H](CO)[C@@H](O)[C@H](O)[C@H]1O [1-(2-chloroethyl)-3-(β-D-glucopyranosyl)-1-nitrosourea]	–	–	–	–	–	–	–	remarkably high inhibitory activity against a variety of leukemia and tumors	side effect [2, 10]: low side effect; toxicity [2, 10]: low toxicity; hygroscopicity [3]: somewhat hygroscopic
